Consider 1 molecule from patent US8551963B2, “Imidazolothiazole compounds and methods of use thereof” (Ambit Biosciences Corporation, priority 2008, dated 2013).

Series [1] concerns the target CYP3A4 (Homo sapiens (Human), UniProt P08684). Description: Cyp enzyme inhibition assay in human liver microsomes, CYP3A4. The conditions noted are these: CYP3A4, substrate testosterone. The class given is in vitro ADME. Here is the method: The ability of the compound I-1 to inhibit human metabolizing enzymes CYP3A4, CYP2C9, […], CYP2C19 and CYP1A2, was assessed using those enzymes found collectively in human liver microsomes. The test compound I-1 was prepared as a solution in DMSO or acetonitrile and plated in duplicate rows of a 96-well plate (Nunc) for a final assay concentration of 40 μM in 0.2% DMSO (or 2% acetonitrile) in the first column and serially diluted two-fold going down the row. A known selective inhibitor of a given CYP enzyme listed in Table 8 was selected as the appropriate positive control. For each CYP enzyme inhibition assay, an appropriate enzyme-substrate mixture was prepared to afford a final assay concentration of 75 mM KPO4/pH 7.4, 6.5 mM MgCl2, 0.25 mg/mL pooled male and female human liver microsome (CellzDirect lot HMMC-PL020) with the amounts of the appropriate substrate for each CYP enzyme assay given in Table 8. The enzyme-substrate mixture was added to columns 1 through 10 and column 11 served as a negative control with enzyme solution lacking substrate. A solution of NADPH (Calbiochem) was then added to all rows except for one where NADPH would be added after the incubation period, in order to detect NADPH-independent non-CYP-mediated metabolism. The plate was briefly vortexed and left to shake in a 37° C. water bath for 20 minutes. […]
In general terms: Microsomes from liver hold many membrane-bound enzymes, among them those of drug oxidation.

Series [2] concerns RS4;11 cells. The experiment in a line: RS4;11 cellular proliferation assay (Cell Titer Blue). The series is classed as cell-based. The note with it: Homo sapiens, RS4-11, 48 h, read-out: EC50 (50% inhibition of cellular proliferation).
Protocol: Cells were cultured overnight in low serum media with 0.5% FBS. The following day, cells were seeded on to a 96-well plate at 40,000 cells per well at a volume of 100 μL per well.
CTB reagent was thawed in a 37° C. water bath. 40 μL of CTB reagent was added to the plate containing the cells, and the cells were incubated with the reagent at 37° C. in 5% CO2 for 3 hours. The absorbance was measured at 560 nm (excitation)/590 nm (emission) using Spectramax Plus 384 Absorbance Microplate Reader by Molecular Devices.
Series [3] is described as follows: Pharmacokinetic study in rats, intravenous and oral. The class given is in vivo. The note with it: rat. As to the method:
Rats were dosed either intravenously at 1 mg/kg dose or orally at 10 mg/kg dose with Compound I-1. Blood samples were collected over a 24 hour time-course. The plasma was analyzed for Compound I-1 and the pharmacokinetic parameters were determined.
Pre-catheterized (jugular vein), male Sprague-Dawley rats (230-300 g) obtained from Charles River, Hollister, Calif., were acclimated at the vivarium of Rabbit and Rodent Diagnostic Associates (San Diego, Calif.) for at least three days following delivery and prior to entering a study. Rats were fasted overnight before intravenous or oral dosing. For intravenous dosing, Compound I-1 was dissolved in a 3:1 PEG400:H2O (Water For Injection) solution and administered at a dose of 1 mg/kg. For oral dosing, Compound I-1 was dissolved in a 22% hydroxypropyl-β-cyclodextrin (HPBCD) solution and administered at a dose of 10 mg/kg. Blood was collected at 5 (IV only), 15, 30 min, 1, 2, 4, 6, and 24 hr postdose using K3EDTA as anticoagulant and plasma was harvested for the analysis of Compound I-1.
Plasma samples, calibration standards and quality control samples (20 μL) were extracted with six volumes of acetonitrile containing an internal standard (25 ng/mL) and analyzed using LC-MS/MS analysis (API 3200). Sample separation was achieved on a Zorbax SB C8 column (5 μm, 4.6×50 mm) at a flow rate of 1.6 mL/min. The gradient program was from 5-95% acetonitrile in 0.05% formic acid over one minute. The mass transition from m/z 577.18 to 421.10 was monitored for Compound I-1. The internal standard mass transitions monitored were 483.0 to 317.2.
Pharmacokinetic parameters of Compound I-1 were calculated based on the plasma concentration-time profiles of each animal using the noncompartmental models in WinNonlin v5.2 (Pharsight, Mountain View, Calif.).

Series [4] addresses FLT3 (Homo sapiens (Human), UniProt P36888). The experiment in a line: biochemical. The series is classed as binding.
Protocol: (§1) Competition binding assays used herein were developed, validated and performed as described in Fabian et al., Nature Biotechnology 2005, 23, 329-336. Kinases were produced as fusions to T7 phage (See, Fabian et al. or WO04/015142) or alternatively, the kinases were expressed in HEK-293 cells and subsequently tagged with DNA for PCR detection (See, WO08/005,310). […] The liganded beads were blocked with excess biotin and washed with blocking buffer (SeaBlock (Pierce), 1% BSA, 0.05% Tween 20, 1 mM DTT) to remove unbound ligand and to reduce non-specific binding. […] Test compounds were prepared as 100× stocks in DMSO and rapidly diluted into the aqueous environment. DMSO was added to control assays lacking a test compound. […] The kinase concentration in the eluates was measured by quantitative PCR. Each kinase was tested individually against each compound. Kds were determined using eleven serial threefold dilutions.
Series [5] concerns the target FLT3 (K663Q) (Homo sapiens (Human), UniProt P36888, K663Q). The experiment in a line: biochemical. The class given is binding.
Protocol: as §1
Series [6] concerns the target CYP2C8 (Homo sapiens (Human), UniProt P10632). The experiment in a line: Time dependant inhibition in human liver microsomes, CYP2C8. The series is classed as in vitro ADME. Here is the method: For each CYP isoform tested, 10 μM Compound I-1 was pre-incubated with pooled male and female human liver microsomes with NADPH in a 37° C. shaking water bath in duplicate to afford a final pre-incubation assay concentration of 100 mM KPO4/pH 7.4, 10 mM MgCl2, 2 mg/mL of human liver microsome (CellzDirect lot HLM HMMC-PL020) and 1 mM NADPH (Calbiochem). At each pre-incubation time point (0, 5, 10, 20, and 30 minutes) 20 μL was removed and placed in a second 96 well plate on ice. After all pre-incubation time points were collected 180 uL of additional human microsome liver preparation containing the appropriate CYP specific substrate at its Km concentration listed in Table 11 plus NADPH, was added to each time point. The samples were incubated for an additional 10 minutes in a 37° C. shaking water bath and then quenched with 75:25 acetonitrile (ACN):water containing the appropriate internal standards listed in Table 11. After brief mixing, the plate was centrifuged and the supernatant removed for analysis by LC/MS/MS (API 4000 Qtrap) for the formation of 6-hydroxy-testosterone (CYP3A4), 4-hydroxy-mephenyloin (CYP2C19), or 6-hydroxy-taxol (CYP2C8). […] Consistent with Example 5, Compound I-1 did inhibit CYP2C8-mediated metabolite formation at 10 μM, but not in a time dependent manner.

[7] abbreviates: male, Sprague-Dawley, plasma, intravenous, 1 mg/kg.
Setting [8] is: male, Sprague-Dawley, plasma, oral, 10 mg/kg.

Where only a bound is given, the exact number is not on record here.

Chain of CYP2C8 (P10632 whole entry, canonical isoform): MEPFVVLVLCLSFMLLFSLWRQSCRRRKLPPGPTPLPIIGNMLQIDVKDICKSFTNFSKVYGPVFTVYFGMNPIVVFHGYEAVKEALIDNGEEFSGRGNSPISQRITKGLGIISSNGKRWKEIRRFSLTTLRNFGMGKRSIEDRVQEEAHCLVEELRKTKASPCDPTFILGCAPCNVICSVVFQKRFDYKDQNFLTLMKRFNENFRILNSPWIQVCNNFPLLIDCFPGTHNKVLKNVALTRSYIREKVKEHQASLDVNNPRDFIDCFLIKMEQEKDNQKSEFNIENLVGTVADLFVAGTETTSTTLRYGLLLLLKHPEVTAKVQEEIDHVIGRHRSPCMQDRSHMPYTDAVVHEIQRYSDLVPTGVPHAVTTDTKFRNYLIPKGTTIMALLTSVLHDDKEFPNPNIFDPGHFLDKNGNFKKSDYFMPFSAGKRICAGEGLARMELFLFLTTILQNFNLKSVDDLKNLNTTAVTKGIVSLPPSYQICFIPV
Chain of CYP3A4 (P08684 whole entry): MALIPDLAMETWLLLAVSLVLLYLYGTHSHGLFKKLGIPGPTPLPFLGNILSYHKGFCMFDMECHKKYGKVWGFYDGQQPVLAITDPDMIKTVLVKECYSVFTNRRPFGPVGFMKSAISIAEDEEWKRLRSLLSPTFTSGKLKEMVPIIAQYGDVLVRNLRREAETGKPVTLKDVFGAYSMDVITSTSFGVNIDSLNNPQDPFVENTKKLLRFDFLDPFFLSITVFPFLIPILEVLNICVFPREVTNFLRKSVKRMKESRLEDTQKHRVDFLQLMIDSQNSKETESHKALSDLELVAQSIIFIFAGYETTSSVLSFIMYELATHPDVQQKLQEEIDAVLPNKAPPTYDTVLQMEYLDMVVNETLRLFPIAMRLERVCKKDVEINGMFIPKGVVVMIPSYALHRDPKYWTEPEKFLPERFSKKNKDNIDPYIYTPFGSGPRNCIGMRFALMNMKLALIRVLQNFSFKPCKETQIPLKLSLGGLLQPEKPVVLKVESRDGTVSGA

For orientation: IC50 means the concentration that gives 50% inhibition. A lower IC50 goes with inhibition by little substance. The term AUC(0-inf) denotes total exposure, with the tail of the curve extrapolated. Read a high AUC(0-inf) as high exposure. Usually half-life stands for how long it takes for the measured level to halve. A lower half-life goes with rapid decline. The term Cmax denotes the maximum level reached in the sampled fluid or tissue. The term Tmax denotes the time from dosing to the highest level. As a reminder, the bioavailability is dose-corrected exposure relative to a reference, in per cent. The Kd is the concentration at which binding is half-saturated. Higher therefore signals lower affinity. Turning to `CC(C)(CO)c1cc(NC(=O)Nc2ccc(-c3cn4c(n3)sc3cc(OCCN5CCOCC5)ccc34)cc2)no1` [Compound I-1, 1-[5-(2-hydroxy-1,1-dimethyl-ethyl)-isoxazol-3-yl]-3-{4-[7-(2-morpholin-4-yl-ethoxy)-benzo[d]imidazo[2,1-b]thiazol-2-yl]-phenyl}-urea], the IC50 in series [1] is > 40000 nM. Moreover, the EC50 in series [2] was 2 nM. Besides, in series [3] (setting [7]), the AUC(0-inf) turned out to be 3.29 µM·h, the Vd came to 1.34 L/kg, the clearance was 8.83 mL/min/kg and the half-life was 3.4 h. For the same molecule, in series [3] (setting [8]), the AUC(0-inf) came to 2.27 µM·h, the Cmax stood at 360 nM, the Tmax worked out at 1.2 h and the half-life was 3.7 h. The bioavailability in series [3] (male, Sprague-Dawley, plasma, oral, 10 mg/kg, calculated with the dose normalized AUC0-inf IV data, read-out: F (absolute bioavailability)) was 6.9%. Further, in series [3] (intravenous, 1 mg/kg), the T1/2 was 3.4 h. In series [4], this molecule showed a Kd of 0.68 nM. Also, binding in series [5] was put at a Kd of 0.69 nM. In series [6] (10 μM), the “Inhibition of CYP2C8-mediated metabolite formation” value is “did inhibit”. In series [6] (CYP2C8, 10 μM, pre-incubation 0-30 minutes), the Time dependant inhibition result is “not a time dependant inhibitor”.
